# Source: US9309211B2, “Arylalkene derivatives and use thereof as selective estrogen receptor modulators” (Centaurus BioPharma Co., Ltd., priority 2011, dated 2016)
# Test system: MCF-7 cells
# Experiment: In vitro growth inhibitory potency of anti-estrogen activity in MCF-7 cells
# Assay type: cell-based, human
# Conditions: Homo sapiens, MCF7, 168 h; in the presence of E2, 7 days, Cell Titre Glo
# Procedure: In Vitro Growth Inhibitory Potency of Anti-Estrogen Activity in MCF-7 Cells:
# The estrogen receptor α (ERα) high expression human breast cancer MCF-7 cells (#HTB-22, A.T.C.C.) were cultured in DMEM medium supplemented by 10% fetal bovine serum (Gibco®) and 10 μg/ml bovine insulin (Sigma®). The cells were maintained in 75 cm^2 cell culture flask (Corning®) filled with 15 ml medium, 95% air and 5% CO2. Cells were split twice a week in a single layer cell culture.
# For experiments related to 17β-Estradiol (E2), cells at logarithm growing stage were pretreated for two days without E2, the phenol red DMEM medium was replaced by the phenol red free DMEM/F12 medium, and FBS was replaced by 10% charcoal stripped FBS to remove the steroid and greatly decrease the hormone levels. Cells were seeded in 96 well cell culture plates (Corning®) with 4×10^3/well density, cultured in E2 free DMEM/F12 medium at 37° C. for 24 hours, 95% air and 5% CO2. All the compounds were stocked in DMSO as 0.01 M, serial diluted by the culture medium and added to the cells in the presence of proper E2 concentration. The final concentrations of compounds and DMSO were 3×10^−10˜1×10^−5 M and 0.1%. Cells were incubated at 37° C. for 7 days, medium containing E2 and compounds were changed every two days to maintain the chemical activity.
# 7 Days later, the viable cell numbers were calculated by the ATP amount from the luciferase quantity measurement (Cell Titre Glo® luciferase kit, Promega®). This method can be used to evaluate the stimulating estrogenicity of estrogen dependent cell growth under the condition of E2 free. The estrogenicity was tested by percentage compared to the maximum growth stimulation (100%) by E2. In this study, the percentage antagonist effects were evaluated by compared to the complete inhibition (100%) at the dose of 1×10^−5 M. The inhibition curves were generated by the reading numbers with the program Prism® 5, IC50 values were calculated.
row,Structure (SMILES),IC50
1,CC/C(=C(\c1ccc(O)cc1)c1ccc(SCCNC)nc1)c1ccccc1,< 100 nM
2,CC/C(=C(\c1ccc(O)cc1)c1ccc(OCCNC)cc1)C1CCC(=O)CC1,< 100 nM
3,CCC(=C(c1ccc(O)cc1)c1ccc(OCCN2CCCCCC2)cc1)c1ccc2oc(Cl)cc2c1,< 100 nM
4,CCC(=C(c1ccc(O)cc1)c1ccc(OCCN2CCN(C)CC2)cc1)c1ccc2oc(Cl)cc2c1,< 100 nM
5,CCC(=C(c1ccc(O)cc1)c1ccc(OCCNC)cc1)c1ccc2nsnc2c1,< 100 nM
6,CCC(=C(c1ccc(O)cc1)c1ccc(CCCN(C)C)nc1)c1ccccc1,< 100 nM
7,CCNCCOc1ccc(C(=C(CC)c2ccc3oc(Cl)cc3c2)c2ccc(O)cc2)cc1,< 100 nM
8,CCC(=C(c1ccc(O)cc1)c1ccc(OCCNC)nc1)c1ccc2c(c1)CCO2,< 100 nM
9,CCC(=C(c1ccc(O)cc1)c1ccc(OCCNC)c(F)c1)c1ccc2c(c1)CCO2,< 100 nM
10,CC/C(=C(/c1ccc(O)cc1)c1ccc(N(C)CCNC)nc1)c1ccccc1,< 100 nM
11,CCC(=C(c1ccc(O)cc1)c1ccc(N(C)CCNC)nc1)c1ccc2oc(Cl)cc2c1,< 100 nM
12,CCC(=C(c1ccc(O)cc1)c1ccc(OCCNC)cc1)C1CCC(O)CC1 (centres unmarked),< 500 nM
13,CCC(=C(c1ccc(O)cc1)c1ccc(OCCN2CCCCC2)cc1)c1ccc2oc(Cl)cc2c1,< 100 nM
14,CC/C(=C(/c1ccc(O)cc1)c1ccc(OCCNC)nc1)c1ccccc1,< 100 nM
15,CC/C(=C(\c1ccc(O)cc1)c1ccc(OCCN2CCN(C)CC2)nc1)c1ccccc1,< 100 nM
16,CCC(=C(c1ccc(O)cc1)c1ccc(OCCNC)cc1)c1ccc(O)c(OC)c1,< 500 nM
17,CCC(=C(c1ccc(O)cc1)c1ccc(OC2CCNC2)cc1)c1ccccc1 (centres unmarked),< 100 nM
18,CC/C(=C(/c1ccc(O)cc1)c1ccc(OCCNC)cc1)c1ccc(O)c(F)c1,< 500 nM
19,CC/C(=C(\c1ccc(O)cc1)c1ccc(OC2CCNC2)nc1)c1ccccc1 (centres unmarked),< 100 nM
20,CC/C(=C(\c1ccc(O)cc1)c1ccc(OCCN2CCOCC2)nc1)c1ccccc1 [drawing 318],< 100 nM
21,CCC(=C(c1ccc(O)cc1)c1ccc(OCCNC)nc1)c1ccc2oc(Cl)cc2c1,< 100 nM
22,CCC(=C(c1ccc(O)cc1)c1ccc(CCCNC)nc1)c1ccccc1,< 100 nM
23,CCC(=C(c1ccc(O)cc1)c1ccc(OCCN(C)C)cc1)c1ccc2oc(Cl)cc2c1,< 100 nM
24,CC/C(=C(/c1ccc(O)cc1)c1ccc(OCCNC)cc1)c1ccc2[nH]ncc2c1,< 100 nM
25,CC/C(=C(/c1ccc(O)cc1)c1ccc(OCCNC)cc1)c1csc(Cl)c1,< 500 nM

# Next, values leading:
row,IC50,Structure (SMILES)
1,< 500 nM,CCC(=C(c1ccc(O)cc1)c1ccc(OCCN(C)C)cn1)c1ccccc1
2,< 100 nM,CCC(=C(c1ccc(O)cc1)c1ccc(OCCN(CC)CC)cc1)c1ccc2oc(Cl)cc2c1
3,< 500 nM,CC/C(=C(\c1ccc(O)cc1)c1ccc(OCCNC)cc1)c1ccc(O)c(F)c1
4,< 100 nM,CCC(=C(c1ccc(O)cc1)c1ccc(SCCNC)nc1)c1ccc2oc(Cl)cc2c1
5,< 100 nM,CCC(=C(c1ccc(O)cc1)c1ccc(OCCN2CCCC2)cc1)c1ccc2oc(Cl)cc2c1
6,< 100 nM,CCC(=C(c1ccc(O)cc1)c1ccc(OCCNC)c(Br)c1)c1ccccc1
7,< 100 nM,CCC(=C(c1ccc(O)cc1)c1ccc(OCCNC)cc1)c1ccc2oc(Cl)cc2c1 [drawing 331]
8,< 100 nM,CC/C(=C(\c1ccc(O)cc1)c1ccc(OCCN(C)C)nc1)c1ccccc1
9,< 500 nM,CCC(=C(c1ccc(O)cc1)c1ccn(CCCN(C)C)c(=O)c1)c1ccccc1
10,< 100 nM,CCC(=C(c1ccc(O)cc1)c1ccc(CCCN2CCCC2)nc1)c1ccc2oc(Cl)cc2c1
11,< 100 nM,CC/C(=C(\c1ccc(O)cc1)c1ccc(OCCNC)cc1)c1ccc2[nH]ncc2c1
12,< 100 nM,CNCCOc1ccc(C(=C(CCCl)c2ccc3c(c2)CCO3)c2ccc(O)cc2)cc1
13,< 100 nM,CC/C(=C(\c1ccc(O)cc1)c1ccc(OCCNC)nc1)c1ccccc1
14,< 100 nM,CCC(=C(c1ccc(O)cc1)c1ccc(CCCN2CCCC2)nc1)c1ccccc1
15,< 100 nM,CC/C(=C(\c1ccc(O)cc1)c1ccc(OCCN2CCCCC2)nc1)c1ccccc1
16,< 100 nM,CCC(=C(c1ccc(O)cc1)c1ccc(O[C@@H]2CCNC2)cc1)c1ccccc1

row,IC50,Structure (SMILES)
1,< 100 nM,CC/C(=C(/c1ccc(O)cc1)c1ccc(OCCNC)cc1)c1ccc2oc(Cl)cc2c1
2,< 100 nM,CCC(=C(c1ccc(O)cc1)c1ccc(OCCNC)cc1)c1ccc2occc2c1
3,< 100 nM,CCC(=C(c1ccc(O)cc1)c1ccc(OCC2CCCN2C)cc1)c1ccccc1 (centres unmarked)
4,< 100 nM,CCC(=C(c1ccc(O)cc1)c1ccc(OCCN2CCOCC2)cc1)c1ccc2oc(Cl)cc2c1
5,< 100 nM,CC/C(=C(\c1ccc(O)cc1)c1ccc(OCCN2CCCC2)nc1)c1ccccc1
6,< 100 nM,CCC(=C(c1ccc(O)cc1)c1ccc(OC[C@@H]2CCCN2)cc1)c1ccccc1
7,< 100 nM,CCC(=C(c1ccc(O)cc1)c1ccc(CCCN2CCCC2)cc1)c1ccccc1
8,< 100 nM,CCC(=C(c1ccc(O)cc1)c1ccc(OCCNC)c(F)c1)c1ccccc1
9,< 500 nM,CC/C(=C(\c1ccc(OC)cc1)c1ccc(OCCNC)cc1)c1ccc2oc(Cl)cc2c1
10,< 100 nM,CCC(=C(c1ccc(OCCNC)cc1)c1ccc(O)c(F)c1)c1ccccc1
11,< 100 nM,CCC(=C(c1ccc(O)cc1)c1ccc(CCCNC)cc1)c1ccccc1
12,< 100 nM,CCC(=C(c1ccc(O)cc1)c1ccc(OCCNC)cc1)c1ccsc1
13,< 100 nM,CCC(=C(c1ccc(O)cc1)c1ccc(C#CCN2CCCC2)c(F)c1)c1ccccc1
14,< 100 nM,CCC(=C(c1ccc(O)cc1)c1ccc(OCCNC)cc1)c1ccc2c(c1)CCO2
15,< 100 nM,CCC(=C(c1ccc(O)cc1)c1ccc(OCCN2CCNCC2)cc1)c1ccc2oc(Cl)cc2c1

# Same assay, conditions: in the presence of E2, 7 days, Cell Titre Glo
row,IC50,Structure (SMILES)
1,< 100 nM,CCC(=C(c1ccc(O)cc1)c1ccc(OCCNC)cc1)c1ccc2oc(Cl)cc2c1 [drawing 303]

# Test system: MCF-7
# Experiment: Anti-tumor (MCF-7) test in nude mice
# Assay type: in vivo
# Conditions: 10 mg/kg PO, QD
# Procedure: (§1) As shown in FIGURE and the table below, 21 days after the nude mouse was administered with Tamoxifen (20 mg/kg), the weight dropped by 20%, and a higher dose of 30 mg/kg of an exemplary compound of the present application, shown below as CT-946-01, led to a weight gain of 7%.
row,Structure (SMILES),TGI (%) 21 days
1,CC/C(=C(\c1ccc(O)cc1)c1ccc(OCCN2CCOCC2)nc1)c1ccccc1 [CT-946-01],108%

# Same assay, conditions: 20 mg/kg PO, QD
row,Structure (SMILES),TGI (%) 21 days
1,"CC/C(=C(\c1ccccc1)c1ccc(OCCN(C)C)cc1)c1ccccc1 [Tamoxifen, reference compound]",22.4%

# Same assay, conditions: 30 mg/kg PO, QD
row,Structure (SMILES),TGI (%) 21 days
1,CC/C(=C(\c1ccc(O)cc1)c1ccc(OCCN2CCOCC2)nc1)c1ccccc1 [CT-946-01],104%

# Test system: not listed separately
# Experiment: Weight change of nude mice during anti-tumor (MCF-7) test (toxicity)
# Assay type: in vivo
# Conditions: 10 mg/kg PO, QD; nude mice
# Procedure: as §1
row,Structure (SMILES),BW (% of vehicle)
1,CC/C(=C(\c1ccc(O)cc1)c1ccc(OCCN2CCOCC2)nc1)c1ccccc1 [CT-946-01],104 % of vehicle

# Same assay, conditions: 20 mg/kg PO, QD; nude mice
row,Structure (SMILES),BW (% of vehicle)
1,"CC/C(=C(\c1ccccc1)c1ccc(OCCN(C)C)cc1)c1ccccc1 [Tamoxifen, reference compound]",80.0 % of vehicle

# Same assay, conditions: 20 mg/kg; 21 days after administration; nude mouse
row,Structure (SMILES),weight dropped
1,"CC/C(=C(\c1ccccc1)c1ccc(OCCN(C)C)cc1)c1ccccc1 [Tamoxifen, reference compound]",20%

# Same assay, conditions: 30 mg/kg PO, QD; nude mice
row,Structure (SMILES),BW (% of vehicle)
1,CC/C(=C(\c1ccc(O)cc1)c1ccc(OCCN2CCOCC2)nc1)c1ccccc1 [CT-946-01],107 % of vehicle

# Same assay, conditions: 30 mg/kg; 21 days after administration; nude mouse
row,Structure (SMILES),weight gain
1,CC/C(=C(\c1ccc(O)cc1)c1ccc(OCCN2CCOCC2)nc1)c1ccccc1 [CT-946-01],7%
